# From patent publication US20140179798A1, “N1,N4-BIS(BUTA-1,3-DIENYL)BUTANE-1,4-DIAMINE PHARMACEUTICAL COMPOSITIONS AND METHODS THEREOF” (Wisconsin Alumni Research Foundation, priority 2006, published 2014)
# “Also recorded” adds a separate entry of the source.
# What was measured:
# [1] = test system: DU-145 human prostate cancer cells; test: DCFH (DCF) oxidation assay of ROS, DCF/DNA fluorescence; type: cell-based; settings: for DCF/DNA Fluor, units: DU-145, DMEM + F(5)
# Experimental: It is well-accepted in the art that androgen, at physiological concentrations, induces ROS production in androgen dependent prostate cancer cells. A 2′,7′-dichlorodihydrofluorescein diacetate (DCF) oxidation assay was used to measure the ratio of oxidized DCF:DNA fluorescence which is an accepted measure of ROS levels in prostate cell lines.
# The LNCaP human prostate cancer cells were grown in an androgen-depleted medium of 1% FBS and 4% charcoal stripped FBS, (F1/C4) and in the presence or absence of 1 nM synthetic androgen analog R1881 with or without 15 μM antioxidant α-tocopherol (vitamin E) pretreatment.
# BE-3-3-3 is known to induce SSAT enzyme activity in various cell lines including androgen-dependent LNCaP and androgen-independent DU-145 prostate cancel cells. DU-145 cells were treated with increasing concentrations of BE-3-3-3 for 72 hours. Oxidative stress was measured using 96-well plate based 2′7′-dichlorfluorescein diacetate dye (“DCF”) oxidation assay. Each data point is an average of qty. 6 identically-treated wells repeated twice in triplicates.
# DCFH oxidation assay. The 96-well cultures or freshly re-sected animal or human tissues were assayed for estimation of ROS levels in intact cells using the dye 2′,7′ -dichlorofluorescein diacetate (DCF) (Molecular Probes, Inc., Eugene, Oreg.). Re-sected tissues or cell cultures were washed with 200 μL Kreb's Ringer buffer (116 mM NaCl, 4.2 mM KCl, 2.5 mM CaCl2, 1.6 mM NaH2PO4, 1.2 mM MgSO4, 22 mM NaHCO3, and 11 mM D-glucose), pre-warmed to 37° C., incubated at 37° C. in 100 μL Kreb's Ringer buffer containing 10 μg/mL (final concentration) DCF dye for 45 minutes. Each 96-well culture plate was scanned on a CytoFluor 2350™ plate scanner (Applied Biosystems, Foster City, Calif.) using the 485 excitation/530 emission frequencies. […]
# (§1) was added to each well 45 minutes and to all tissues 60 minutes before fluorescence measurements. The DNA fluorescence was determined 360 nm excitation/460 nm emission. All DCF or Hydroethidine fluorescence were normalized to DNA fluorescence for proper quantitation of oxidative stress.
# [2] = test system: LNCaP human prostate cancer cells; test: as above; type: cell-based; settings: for DCF/DNA Fluor, units: DMEM + (F1/C4)
# Experimental: It is well-accepted in the art that androgen, at physiological concentrations, induces ROS production in androgen dependent prostate cancer cells. A 2′,7′-dichlorodihydrofluorescein diacetate (DCF) oxidation assay was used to measure the ratio of oxidized DCF:DNA fluorescence which is an accepted measure of ROS levels in prostate cell lines. […]
# Results were determined using DCF oxidation assay methods. Each data point is an average of readings from qty. 6 wells repeated twice in triplicates.
# DCFH oxidation assay. The 96-well cultures or freshly re-sected animal or human tissues were assayed for estimation of ROS levels in intact cells using the dye 2′,7′ -dichlorofluorescein diacetate (DCF) (Molecular Probes, Inc., Eugene, Oreg.). Re-sected tissues or cell cultures were washed with 200 μL Kreb's Ringer buffer (116 mM NaCl, 4.2 mM KCl, 2.5 mM CaCl2, 1.6 mM NaH2PO4, 1.2 mM MgSO4, 22 mM NaHCO3, and 11 mM D-glucose), pre-warmed to 37° C., incubated at 37° C. in 100 μL Kreb's Ringer buffer containing 10 μg/mL (final concentration) DCF dye for 45 minutes. Each 96-well culture plate was scanned on a CytoFluor 2350™ plate scanner (Applied Biosystems, Foster City, Calif.) using the 485 excitation/530 emission frequencies. Each tissue sample was scanned.
# DNA Assay. Fifty μL of Kreb's Ringer Buffer (40 ug/mL) containing Hoechst 33342 dye, which contains
# as §1
# [3] = test system: prostate tissue in TRAMPxFVB animals; test: Hydroethidine (HEt) dye oxidation in prostate sections in vivo; parameters: species or system mouse; settings: 20-week-old TRAMPxFVB, 6 administrations of 25 mg/kgBW, sacrificed 2 weeks after treatment, HEt 8 mg/kgBW i.v.
# Experimental: A method using hydroethidine (HEt) dye oxidation was standardized to observe oxidative stress in prostate tumors in vivo. HEt oxidizes to 2-hydroxy ethidium specifically by a ROS(41). The 2-hydroxy ethidium fluoresces at 488 nm excitation and 595 nm emission frequencies. The HEt dye may be safely injected into animals at least 1 hour before sacrifice. Twenty-week old TRAMPxFVB animals were injected with HEt (8 mg/kgBW) 1 hour before sacrifice. After sacrifice, prostate glands were collected, formalin-fixed and paraffin-embedded. Paraffin blocks were microtome-sectioned, and the tissues were deparaffinized, observed using fluorescence microscopy, and analyzed using digital image analysis.
# The picture shown in FIGS. 7A-7D were taken at 20× magnification using an Olympus BH-2 fluorescence microscope using 480 nm excitation/600 nm emission filters coupled with a Sony DSC-V3 digital camera set at F2.8 and 30 sec. exposure.
# Hydroethidine Assay. Hydroethidine dye was dissolved in DMSO (100 mg/ml) and diluted in isotonic saline to 1 mg/ml before injection. […] Microtome sections of the blocks were mounted on slides and were quantitated for fluorescence at 488 nm excitation/595 nm emission frequencies.
# [4] = test system: TRAMPxFVB male mice (spontaneous prostate tumors); test: Overall survival of TRAMPxFVB mice; type: in vivo, mouse
# Excerpt: In the study using the TRAMPxFVB mice, qty. 8 animal were in the MDL 72,527-treated group, and qty. 8 mice were in the vehicle-treated group. Since these animals start prostate tumor development at an earlier age than do the TRAMP animals, treatment began at 8 weeks of age. Treatment included qty. […] Over 60% of the MDL 72,527-treated TRAMPxFVB mice survived at least 8 weeks after the end of the therapy, and at least 6 weeks after the death of the entire group of control vehicle-treated animals.
# Androgen Receptor = test: Western blot analysis of Androgen Receptor; type: in vivo, mouse; settings: TRAMPxFVB mice
# [5] = Tolerability and body weight in TRAMPxFVB mice; settings: 25 mg/kgBW
# [6] = test system: TRAMPxFVB mice (palpable prostate tumor); test: Time to palpable tumor development in TRAMPxFVB mice; type: in vivo, mouse
# Excerpt: Signs of palpable prostate tumor development were monitored twice every week.
# [7] = test system: TRAMP male mice (spontaneous prostate tumors); test: Overall survival of TRAMP mice; type: in vivo, mouse
# [8] = test system: polyamine and acetyl polyamine levels in LNCaP human prostate cells; test: HPLC quantitation of polyamine and acetyl polyamine levels; type: cell-based
# Excerpt: Each data point is an average of 2 determinations of cell pellets collected from qty. 3 independent experiments.
# It can be stated that FIGS. 5A-5E support the conclusion that R1881 treatment increases SSAT mRNA levels while enhancing SSAT enzyme activity.
# [9] = test system: SSAT mRNA in LNCaP human prostate cancer cells; test: qRT-PCR quantitation of SSAT mRNA normalized to GAPDH mRNA; type: cell-based; settings: 1 nM R1881, 96 hours
# Excerpt: Each data point is an average of readings from qty. six identically-treated wells repeated twice in triplicates. […] It can be thus postulated that androgen-induced SSAT gene expression is a significant contributor to cellular ROS production in androgen-dependent prostate cancer cells.
# [10] = test system: SSAT gene expression in LNCaP cells; test: DNA microarray analysis of gene expression (Affymetrix Genechip Arrays); type: cell-based, human; settings: 1 nM R1881, 96 hours
# Experimental: As shown schematically in FIG. 1, unusually high polyamine levels in prostate cells and high induction of SSAT may induce large increases in ROS levels. A DNA microarray analysis of gene expression in control untreated LNCaP cells and cells treated with 1 nM androgen analog R1881 for 96 hours was performed twice using Affymetrix Genechip Arrays. In both experiments, SSAT was clearly identified as being highly over-expressed in R1881 treated with LNCaP cells as compared to untreated control cells. Among the list of genes that are over-expressed (more than 10-fold over the control), SSAT was the only enzyme connected to the ROS-generating pathway.
# [11] = 1 μM BE-3-3-3 + 25 μM MDL 72,527
# [12] = LNCaP, 24 h pretreatment 25 μM MDL 72,527 then 1 nM R1881 96 h
smiles,measurement,setting,value
"CCNCCCNCCCNCCCNCC [BE-3-3-3, bisethylnorspermine]","DCF/DNA Fluor, units",[1]; 1 μM BE-3-3-3,0.67 units
same,"cellular ROS levels (DCF/DNA fluorescence, percent of control)","[1]; DU-145, increasing BE-3-3-3 concentration, 72 hours, non-cytotoxic dose <1 μM",increases oxidative stress; also recorded: increases cellular ROS levels
same,"DCF/DNA Fluor, units",[2]; 1 μM BE-3-3-3,3.19 units
"C=C=CCNCCCCNCC=C=C [MDL 72,527]","DCF/DNA Fluor, units",[1]; [11],0.26 units
same,androgen (R1881) induced production of ROS,"[2]; 25 μM MDL 72,527 pretreatment, increasing R1881 concentration 96 hours",effectively blocks androgen induced production of ROS
same,"DCF/DNA Fluor, units",[2]; [11],1.87 units
same,"HEt dye oxidation (fluorescence) in prostate section, oxidative stress in vivo",[3],less HEt fluorescence; also recorded: no dye oxidation was detected
same,survival benefit vs vehicle-treated mice,[4]; 25 mg/kgBW i.p. bi-weekly,Over 60%
same,treated mice surviving at least 8 weeks after the end of the therapy,[4]; 25 mg/kgBW i.p. bi-weekly x6,Over 60%
same,overall survival (OS) vs vehicle,"[4]; 25 mg/kgBW i.p. bi-weekly x6, from 8 weeks of age",significant increase in OS; also recorded: improvement in overall survival; also recorded: increased overall survival
same,Androgen Receptor level (Western blot),Androgen Receptor,not due to down-regulation of the Androgen Receptor
same,"tolerability (overt signs of toxicity, abnormal behavior, body weight loss)",[5],well-tolerated
same,time to tumor development,"[6]; TRAMPxFVB mice, 25 mg/kgBW every two weeks",delays time to tumor development
same,treated mice with no signs of palpable tumor,"[6]; TRAMPxFVB, 11 weeks after treatment discontinued (29 week old animals), 25 mg/kgBW once bi-weekly",over 40%
same,survival benefit vs vehicle-treated mice,[7]; 25 mg/kgBW i.p. bi-weekly,Over 60%
same,overall survival (OS) vs vehicle,"[7]; 25 mg/kgBW i.p. bi-weekly x3, from 22 weeks",significant improvement; also recorded: improvement in overall survival; also recorded: improved overall survival
same,N-acetyl-spermidine level,[8]; [12],significant increase
same,N-acetylspermine level,[8]; [12],significant increase
same,R1881-induced increase in putrescine level,[8]; [12],almost completely blocked the induced increase
same,R1881-induced increase in spermidine level,[8]; [12],almost completely blocked the induced increase
same,spermine level,[8]; [12],without appreciably changing
same,APAO activity in cells,"[8]; LNCaP, MDL 72,527 at 25 μM",efficiently and effectively blocked APAO activity
same,N-Ac-spermine level,"[8]; LNCaP, treated with the compound (25 μM, 120 hours), without R1881",insignificantly small increase
same,effect on SSAT gene expression and/or enzymatic activity,"[8]; androgen-treated LNCaP cells, 25 μM MDL 72,527",no material effect
"C[C@]1(O)CC[C@H]2[C@@H]3CCC4=CC(=O)CCC4=C3C=C[C@@]21C [R1881, reference compound]",oxidative stress,[2]; 0.05 nM R1881,no increase in oxidative stress
same,"DCF/DNA Fluor, units",[2]; 1 nM R1881,3.34 units
same,increase in SSAT gene expression vs untreated control cells (qRT-PCR),[9],50 fold
same,N-acetyl spermidine level,"[8]; LNCaP, 1 nM R1881, 96 hours",increases
same,N-acetylspermine level,"[8]; LNCaP, 1 nM R1881, 96 hours",increases
same,putrescine level,"[8]; LNCaP, 1 nM R1881, 96 hours",significantly increases
same,spermidine level,"[8]; LNCaP, 1 nM R1881, 96 hours",significantly increases
same,spermine level,"[8]; LNCaP, 1 nM R1881, 96 hours",decreases
same,SSAT over-expression over the control (DNA microarray),[10],more than 10 fold
"Cc1c(C)c2c(c(C)c1O)CC[C@@](C)(CCC[C@H](C)CCC[C@H](C)CCCC(C)C)O2 [Vitamin E, α-tocopherol]","DCF/DNA Fluor, units",[2]; 1 nM R1881 + 15 μM Vitamin E,1.80 units
